The values below come from patent US20180098977A1, “SCALABLE MICROPARTICULATE FORMULATIONS CONTAINING POLYMORPHIC NIMODIPINE FORM 2 PREPARED BY A SOLVENT EVAPORATION PROCESS” (Edge Therapeutics, Inc., priority 2016, published 2018).

The conditions of data set [1]: at 25° C.; cited from earlier work.
Data set [2] relates to subjects with an aneurysmal subarachnoid hemorrhage (aSAH). The data set can be described thus: NEWTON Phase 1/2 study, efficacy and safety. It counts as in vivo, human. The source says: NEWTON (Nimodipine microparticles to Enhance recovery While reducing TOxicity after subarachNoid hemorrhage) was a multicenter, randomized, controlled, open-label Phase 1/2 study evaluating the safety, tolerability and pharmacokinetics of escalating doses of a polymeric nimodipine microparticle suspended in a diluent of hyaluronic acid (EG-1962) compared to the current standard of care, oral nimodipine, in subjects with an aneurysmal subarachnoid hemorrhage (aSAH).
Fifty-four patients were randomized to receive EG-1962 and 18 patients were randomized to receive oral nimodipine.
The primary endpoint was to establish the maximum tolerated dose, which has been determined to be 800 mg. […] The secondary endpoint of characterizing the pharmacokinetics of EG-1962 was also met. The steady-state plasma concentration measured in patients treated with EG-1962 was below 30 ng/ml, the level of plasma concentration observed to cause systemic hypotension.

For the compound `COCCOC(=O)C1=C(C)NC(C)=C(C(=O)OC(C)C)C1c1cccc([N+](=O)[O-])c1` (racemic) [Mod I, Nimodipine], the solubility in water in data set [1] is listed as 0.036±0.007 mg 100 mL^−1.

As to `COCCOC(=O)C1=C(C)NC(C)=C(C(=O)OC(C)C)C1c1cccc([N+](=O)[O-])c1` (stereo not shown) [Mod II, Nimodipine], the solubility in water in data set [1] is given as 0.018±0.004 mg 100 mL^−1.

As to `COCCOC(=O)C1=C(C)NC(C)=C(C(=O)OC(C)C)C1c1cccc([N+](=O)[O-])c1` (stereo not shown) [nimodipine, isopropyl(2-methoxyethyl)-1,4-dihydro-2,6-dimethyl-4-(3-nitrophenyl)-3,5-pyridinedicarboxylate], in data set [2] (at 90 days, pooled efficacy results), the “patients who achieved a favorable outcome (scores of 6-8, Extended Glasgow Outcome Score [GOSE])” value was determined as 28%. The “patients who experienced drug-related hypotension” value in data set [2] (human, in vivo) was found to be 17%.
